Results taken from patent publication US12156523B2 (priority 2017, dated 2024).

What was measured:
Pyricularia oryzae [1] = test: whole plant or invertebrate; format: in vivo; conditions: foliar, read-out: Control value (number of lesions at the second leaf)
Pyricularia oryzae [2] = test: whole plant or invertebrate; format: in vivo; conditions: soil, read-out: Control value (number of lesions at the second leaf)

| Compound | pest or weed control at 200 ppm (Pyricularia oryzae [1]) [%] | pest or weed control at 10 µg/mL (Pyricularia oryzae [2]) [%] | pest or weed control at 25 ppm (Pyricularia oryzae [1]) [%] |
| --- | --- | --- | --- |
| O=C(Nc1ccc2c(c1)CCCC2)c1cc(F)nc(F)c1F [Example 1-3] | ≥ 80 | ≥ 80 |  |
| O=C(Nc1nccs1)c1cc(F)nc(F)c1F [Example 1-18] | ≥ 80 | ≥ 80 |  |
| O=C(Nc1cc(Cl)c(Cl)c(Cl)c1)c1cc(F)nc(F)c1F [Example 1-19] |  | ≥ 80 | ≥ 80 |
| Cc1ccc(NC(=O)c2cc(F)nc(F)c2F)cc1Cl [Example 1-30] |  | ≥ 80 | ≥ 80 |
| O=C(Nc1cccc(Cl)c1)c1cc(F)nc(F)c1F [Example 1-32] | ≥ 80 | ≥ 80 |  |
| CCOc1cccc(NC(=O)c2cc(F)nc(F)c2F)c1 [Example 1-38] |  |  | ≥ 80 |
| CC(C)Oc1cccc(NC(=O)c2cc(F)nc(F)c2F)c1 [Example 1-41] |  |  | ≥ 80 |
| COc1cccc(NC(=O)c2cc(F)nc(F)c2F)c1 [Example 1-44] |  | ≥ 80 | ≥ 80 |
| CC(C)Oc1ccc(NC(=O)c2cc(F)nc(F)c2F)cc1 [Example 1-59] |  | ≥ 80 | ≥ 80 |
| COC(=O)CNC(=O)c1cc(F)nc(F)c1F [Example 1-86] | ≥ 80 | ≥ 80 |  |
| O=C(NC(=O)c1cc(F)nc(F)c1F)c1ccccc1 [Example 1-93] | ≥ 80 | ≥ 80 |  |
| O=C(Nc1ccccc1)c1cc(F)nc(F)c1F [Example 1-98] | ≥ 80 | ≥ 80 |  |
| CC(=O)Oc1ccccc1COC(=O)c1cc(F)nc(F)c1F [Example 1-102] | ≥ 80 | ≥ 80 |  |
| COc1ccccc1OC(=O)c1cc(F)nc(F)c1F [Example 1-103] | ≥ 80 | ≥ 80 |  |
| O=C(OCc1cccc(Cl)c1)c1cc(F)nc(F)c1F [Example 1-105] | ≥ 80 | ≥ 80 |  |
| CCOC(=O)c1cc(F)nc(F)c1F [Example 1-117] |  | ≥ 80 |  |
| CC(C)OC(=O)c1cc(F)nc(F)c1F [Example 1-118] |  | ≥ 80 |  |
| C#CCOC(=O)c1cc(F)nc(F)c1F [Example 1-119] |  | ≥ 80 |  |
| O=C(OCC(F)(F)F)c1cc(F)nc(F)c1F [Example 1-120] |  | ≥ 80 |  |
| O=C(OCC=C(Cl)Cl)c1cc(F)nc(F)c1F [Example 1-122] |  | ≥ 80 |  |
| CCCOC(=O)c1cc(F)nc(F)c1F [Example 1-123] |  | ≥ 80 |  |

| Compound | pest or weed control at 200 ppm (Pyricularia oryzae [1]) [%] | pest or weed control at 10 µg/mL (Pyricularia oryzae [2]) [%] | pest or weed control at 25 ppm (Pyricularia oryzae [1]) [%] |
| --- | --- | --- | --- |
| O=C(OC/C=C/c1ccccc1)c1cc(F)nc(F)c1F [Example 1-124] |  | ≥ 80 |  |
| CCOC(=O)COC(=O)c1cc(F)nc(F)c1F [Example 1-125] |  | ≥ 80 |  |
| CCCCCCCCOC(=O)c1cc(F)nc(F)c1F [Example 1-127] |  | ≥ 80 |  |
| O=C(Oc1ccccc1)c1cc(F)nc(F)c1F [Example 1-129] | ≥ 80 |  |  |
| O=C(Sc1ccccc1)c1cc(F)nc(F)c1F [Example 1-130] |  | ≥ 80 |  |
| COc1ccccc1NC(=O)c1cc(F)nc(F)c1 [Example 1-131] | ≥ 80 |  |  |
| COc1cc(NC(=O)c2cc(F)nc(F)c2)cc(OC)c1 [Example 1-132] | ≥ 80 | ≥ 80 |  |
| Cc1ccc(NC(=O)c2cc(F)nc(F)c2)cc1Cl [Example 1-133] | ≥ 80 | ≥ 80 |  |
| CC(C)Oc1ccc(NC(=O)c2cc(F)nc(F)c2)cc1 [Example 1-137] | ≥ 80 | ≥ 80 |  |
| COc1ccc(NC(=O)c2cc(F)nc(F)c2)cc1 [Example 1-138] | ≥ 80 |  |  |
| O=C(Nc1ccc(C(F)(F)F)cc1)c1cc(F)nc(F)c1 [Example 1-139] | ≥ 80 | ≥ 80 | ≥ 80 |
| O=C(NCc1ccccc1)c1cc(F)nc(F)c1 [Example 1-140] |  | ≥ 80 |  |
| CC(NC(=O)c1cc(F)nc(F)c1)c1ccc(Cl)cc1 (stereo not shown) [Example 1-141] |  | ≥ 80 |  |
| O=C(Nc1ccccc1)c1cc(F)nc(F)c1 [Example 1-143] |  | ≥ 80 |  |
| CC(=O)Oc1ccccc1COC(=O)c1cc(F)nc(F)c1 [Example 1-145] |  | ≥ 80 |  |
| O=C(Nc1ccccc1)c1ccnc(C(F)(F)F)c1 [Example 1-146] |  | ≥ 80 |  |
| CCOC(=O)c1ccnc(C(F)(F)F)c1 [Example 1-147] |  | ≥ 80 |  |
| O=C(OC/C=C\COC(=O)c1cc(F)nc(F)c1F)c1cc(F)nc(F)c1F [Example 1-151] |  | ≥ 80 |  |
| O=C(OC/C=C/COC(=O)c1cc(F)nc(F)c1F)c1cc(F)nc(F)c1F [Example 1-152] |  | ≥ 80 |  |
| O=C(Nc1ccc(Cl)cc1)c1cc(F)nc(F)c1 [Example 1-153] |  | ≥ 80 |  |
| O=C(Nc1ccc(Cl)c(Cl)c1)c1cc(F)nc(F)c1 [Example 1-155] |  | ≥ 80 |  |

| Compound | pest or weed control at 200 ppm (Pyricularia oryzae [1]) [%] | pest or weed control at 10 µg/mL (Pyricularia oryzae [2]) [%] | pest or weed control at 25 ppm (Pyricularia oryzae [1]) [%] |
| --- | --- | --- | --- |
| C=CCNC(=O)c1cc(F)nc(F)c1 [Example 1-159] |  | ≥ 80 |  |
| CCc1cccc(NC(=O)c2cc(F)nc(F)c2)c1 [Example 1-168] | ≥ 80 | ≥ 80 | ≥ 80 |
| CCc1ccccc1NC(=O)c1cc(F)nc(F)c1 [Example 1-169] | ≥ 80 | ≥ 80 |  |
| Cc1ccc(NC(=O)c2cc(F)nc(F)c2)cc1 [Example 1-170] | ≥ 80 | ≥ 80 |  |
| O=C(Nc1ccncc1)c1cc(F)nc(F)c1 [Example 1-172] | ≥ 80 |  | ≥ 80 |
| O=C(Nc1ccccc1[N+](=O)[O-])c1cc(F)nc(F)c1 [Example 1-173] | ≥ 80 | ≥ 80 |  |
| O=C(OCc1ccc(Cl)nc1)c1cc(F)nc(F)c1 [Example 1-174] | ≥ 80 | ≥ 80 | ≥ 80 |
| O=C(Nc1cccc([N+](=O)[O-])c1)c1cc(F)nc(F)c1 [Example 1-175] | ≥ 80 | ≥ 80 |  |
| O=C(Nc1ccc([N+](=O)[O-])cc1)c1cc(F)nc(F)c1 [Example 1-176] | ≥ 80 | ≥ 80 |  |
| CC(C)c1ccccc1NC(=O)c1cc(F)nc(F)c1 [Example 1-177] | ≥ 80 |  |  |
| CC(C)c1cccc(NC(=O)c2cc(F)nc(F)c2)c1 [Example 1-178] | ≥ 80 | ≥ 80 |  |
| CC(C)c1ccc(NC(=O)c2cc(F)nc(F)c2)cc1 [Example 1-179] | ≥ 80 | ≥ 80 |  |
| CCCCc1ccc(NC(=O)c2cc(F)nc(F)c2)cc1 [Example 1-180] | ≥ 80 | ≥ 80 |  |
| CCCCCCc1ccc(NC(=O)c2cc(F)nc(F)c2)cc1 [Example 1-181] |  | ≥ 80 |  |
| C#CCOC(=O)c1cc(F)nc(F)c1 [Example 1-182] |  | ≥ 80 |  |
| O=C(OCc1ccccc1)c1cc(F)nc(F)c1 [Example 1-183] | ≥ 80 | ≥ 80 |  |
| CCCOC(=O)c1cc(F)nc(F)c1 [Example 1-184] |  | ≥ 80 |  |
| CCOC(=O)c1cc(F)nc(F)c1 [Example 1-185] |  | ≥ 80 |  |
| CCc1ccc(OC(=O)c2cc(F)nc(F)c2)cc1 [Example 1-186] |  | ≥ 80 |  |
| C=CCOC(=O)c1cc(F)nc(F)c1 [Example 1-188] |  | ≥ 80 |  |
| COC(=O)c1cc(F)nc(F)c1 [Example 1-189] |  | ≥ 80 |  |

| Compound | pest or weed control at 200 ppm (Pyricularia oryzae [1]) [%] | pest or weed control at 10 µg/mL (Pyricularia oryzae [2]) [%] | pest or weed control at 25 ppm (Pyricularia oryzae [1]) [%] |
| --- | --- | --- | --- |
| CSc1cccc(NC(=O)c2cc(F)nc(F)c2)c1 [Example 1-192] |  | ≥ 80 |  |
| O=C(Nc1nc2ccccc2s1)c1cc(F)nc(F)c1 [Example 1-194] |  | ≥ 80 |  |
| COc1ccc(NC(=O)c2cc(F)nc(F)c2)cc1 [Example 1-200] |  | ≥ 80 |  |
| O=C(Nc1ccc(F)cc1)c1cc(F)nc(F)c1 [Example 1-201] |  | ≥ 80 |  |
| O=C(Oc1ccc([N+](=O)[O-])cc1)c1cc(F)nc(F)c1 [Example 1-203] |  | ≥ 80 |  |
| O=C(OC1CCCCC1)c1cc(F)nc(F)c1 [Example 1-205] |  | ≥ 80 |  |
| Cc1cccc(OC(=O)c2cc(F)nc(F)c2)c1 [Example 1-206] |  | ≥ 80 |  |
| O=C(Oc1cccc(F)c1)c1cc(F)nc(F)c1 [Example 1-207] |  | ≥ 80 |  |
| Cc1ccccc1OC(=O)c1cc(F)nc(F)c1 [Example 1-208] |  | ≥ 80 |  |
| O=C(Oc1ccccc1Cl)c1cc(F)nc(F)c1 [Example 1-209] |  | ≥ 80 |  |
| O=C(Oc1ccccc1F)c1cc(F)nc(F)c1 [Example 1-211] |  | ≥ 80 |  |
| CCCCCCOC(=O)c1cc(F)nc(F)c1 [Example 1-213] |  | ≥ 80 |  |
| CCCCCCCCCCCCOC(=O)c1cc(F)nc(F)c1 [Example 1-214] |  | ≥ 80 |  |
| O=C(Oc1ccccc1)c1cc(F)nc(F)c1 [Example 1-218] |  | ≥ 80 |  |
| Cn1cccc1C(=O)c1cc(F)nc(F)c1F [Example 2-2] |  | ≥ 80 |  |
| O=C(c1cc(F)nc(F)c1F)N1CCc2ccccc21 [Example 2-4] |  | ≥ 80 |  |
| O=C1c2ccccc2S(=O)(=O)N1C(=O)c1cc(F)nc(F)c1F [Example 2-5] |  | ≥ 80 |  |
| CC(=O)OCc1cc(F)nc(F)c1F [Example 3-1] |  | ≥ 80 |  |
| Fc1cc(C2=NCCO2)c(F)c(F)n1 [Example 4-2] |  | ≥ 80 |  |
| Fc1cc(C2=NCCCO2)c(F)c(F)n1 [Example 4-3] |  | ≥ 80 |  |
